US9290537B2, “Method for cross-linking peptides” (UNIVERSITEIT GENT, priority 2010, dated 2016)

What was measured:
streptavidin [1] = target: T1, streptavidin (Streptomyces avidinii, UniProt P22629); conditions: same binding site as the StrepTagII; cited from earlier work
[2] = target: T2, wild type pyrrolysyl-tRNA synthetase of M. mazei (Methanosarcina mazei, UniProt Q8PWY1); experiment: Incorporation of furan amino acid in Yellow Fluorescent Protein in E. coli, wild type synthetase; assay type: cell-based; conditions: 0, 2, 5 and 10 mM in T7 Express E. coli cultures; YFP fluorescence
T2 construct: expressed in transfected cells
T2 sequence (Q8PWY1 whole entry): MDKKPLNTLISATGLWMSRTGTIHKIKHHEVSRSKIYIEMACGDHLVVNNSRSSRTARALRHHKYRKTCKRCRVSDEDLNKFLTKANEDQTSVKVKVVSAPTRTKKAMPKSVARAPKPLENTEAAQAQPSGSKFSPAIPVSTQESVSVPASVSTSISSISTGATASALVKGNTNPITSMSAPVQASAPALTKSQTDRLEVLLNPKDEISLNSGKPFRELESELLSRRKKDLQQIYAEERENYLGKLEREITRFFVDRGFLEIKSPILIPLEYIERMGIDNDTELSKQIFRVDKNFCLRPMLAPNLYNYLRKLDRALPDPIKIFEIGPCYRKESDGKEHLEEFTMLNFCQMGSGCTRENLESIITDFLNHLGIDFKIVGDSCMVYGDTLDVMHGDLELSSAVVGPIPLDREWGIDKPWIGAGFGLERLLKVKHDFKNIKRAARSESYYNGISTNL
Method: (§1) The incorporation of unnatural furan amino acids by the pyrrolysyl-tRNA synthetase and its tRNA-CUA in Yellow Fluorescent Protein (YFP) can be easily evaluated by monitoring its fluorescence with confocal microscopy. Without incorporation of the furan amino acid at the amber codon position a truncated non-fluorescent protein was obtained, therefore the obtained fluorescence intensity paralleled the incorporation efficiency. The incorporation of the furan amino acids was tested with the tRNA-CUA of Methanosarcina mazei (M. mazei) and with the wild type pyrrolysyl-tRNA synthetase of M. mazei and the Tyr384Phe-Tyr306Ala variant of the pyrrolysyl-tRNA synthetase of M. mazei (Yanagisawa et al., Chemistry & Biology, 2008, 15, 1187-1197).
(§2) The furan amino acid of Formula (XId) or the furan amino acid of Formula (XIc) was added in a concentration of 0, 2, 5 and 10 mM to 5 ml cell cultures of T7 Express Competent E. coli (from New England BioLabs) transformed with a pET-Duet-1 plasmid (Novagen) containing the genes for the pyrrolysine tRNA-synthetase, 3 copies of the tRNA-CUA and the mutated YFP, in LB medium with the appropriate antibiotic.

[3] = target: T3, Tyr384Phe-Tyr306Ala variant of the pyrrolysyl-tRNA synthetase of M. mazei (Methanosarcina mazei, UniProt Q8PWY1, Y306A/Y384F); experiment: Incorporation of furan amino acid in Yellow Fluorescent Protein in E. coli, mutated synthetase; assay type: cell-based; conditions: for incorporation in YFP by the mutated pyrrolysine tRNA-synthetase: 0, 2, 5 and 10 mM in T7 Express E. coli cultures, YFP fluorescence
T3 construct: expressed in transfected cells
T3 sequence (Q8PWY1 whole entry Y306A/Y384F): as the sequence (Q8PWY1 whole entry) above, with Y306A, Y384F counted along it
Method: as §1, §2

[4] = target: T4, wild type pyrrolysyl-tRNA synthetase and tRNA-CUA of M. mazei (Methanosarcina mazei, UniProt Q8PWY1); experiment: Incorporation of furan amino acid in thioredoxinA (TrxA), LCMS and trypsin digest; assay type: cell-based; conditions: 5 mM in 1 l cell culture; trypsin digest and peptide analysis
T4 construct: expressed in transfected cells
T4 sequence (Q8PWY1 whole entry): as the sequence (Q8PWY1 whole entry) above
Method: In addition to YFP, another protein, thioredoxinA (TrxA), was chosen for providing additional proof of incorporation of a furan amino acid in a protein, through mass characterization after purification.
Experiments were performed similar as in Example 12 with wild type pyrrolysyl-tRNA synthetase and tRNA-CUA of M. mazei, with the mutated TrxA and with the furan amino acid of Formula (XIc) in a concentration of 5 mM in a 1 l cell culture. This yielded 170 μg of protein after purification over a Strep column. Accurate mass determination with full protein LCMS analysis (Orbitrap, Thermo Scientific) found a mass of 13039.7 Dalton (the calculated average mass of the furan-modified oxidized thioredoxinA without the starting methionine is 13039.95 Dalton), proving the incorporation of the furan amino acid in the protein and its stability.

streptavidin [5] = target: T1, streptavidin; experiment: Cross-linking free furan-StrepTagII peptides with streptavidin (furan-oxidation, NBS, MALDI-TOF); assay type: binding; conditions: for peptide cross-linking with streptavidin: ten equivalents peptide, 60 min 37° C., one equivalent NBS per peptide, 2 hours 10° C., NaCNBH3
From the text: In order to show the cross-link between peptides, an in vitro model system based on the interaction between the StrepTagII and streptavidin was used. The first available Strep-Tag (AWRHPQFGG; SEQ ID NO: 19) able to bind streptavidin could only be attached to the C-terminus of a protein. By changing the sequence of the Strep-Tag, a StrepTagII was developed that can be both N-terminally and C-terminally modified without losing its affinity for streptavidin. Because the intermolecular interactions between the StrepTagII and streptavidin are well characterized, StrepTagII-streptavidin is an excellent model for testing cross-linking.
The free N-terminal and C-terminal furan-StrepTagII peptides 5.2 and 5.3, obtained as described in Example 1, were used to test cross-linking with streptavidin using the furan-oxidation method.
Ten equivalents of the furan-peptides 5.2 or 5.3 were mixed with streptavidin and incubated during 60 min at 37° C. One equivalent of NBS per equivalent of peptide was added as an activation signal and the reaction mixture was incubated during 2 hours at 10° C. with shaking. […] The cross-link between the N-terminal furan-StrepTagII peptide 5.2 and streptavidin was less explicit than the cross-link between the C-terminal furan-StrepTagII peptide 5.3 and streptavidin. This is however not unexpected since the N-terminus of the furan-StrepTagII peptide 5.2 is located outside of its binding site with streptavidin.

streptavidin [6] = target: T1, streptavidin; experiment: Specific inhibition of the cross-link of free furan-StrepTagII peptides with streptavidin by biotin; assay type: binding; conditions: ten equivalents peptide, streptavidin and biotin, 60 min 37° C.; one equivalent NBS, 2 hours 10° C.
Method: In order to test the specificity of the StrepTagII-streptavidin cross-link, the experiment of Example 5 was repeated in the presence of biotin. As mentioned before, biotin binds streptavidin with high affinity and on the same binding site as the StrepTagII and can therefore act as a specific inhibitor of the cross-link.
Ten equivalents of the furan-StrepTagII peptides 5.2 or 5.3, obtained as described in Example 1, were mixed with streptavidin and biotin and incubated during 60 min at 37° C. One equivalent of NBS per equivalent of peptide was added and the reaction was performed during 2 hours at 10° C. with shaking.

T1 sequence (P22629 25-183, species assumed): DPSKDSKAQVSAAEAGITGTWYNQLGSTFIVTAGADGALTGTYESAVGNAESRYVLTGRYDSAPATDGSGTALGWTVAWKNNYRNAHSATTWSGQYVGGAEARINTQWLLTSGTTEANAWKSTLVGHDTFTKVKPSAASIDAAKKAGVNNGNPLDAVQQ

Compound	incorporation in YFP by the wild type synthetase [2]	incorporation in YFP by the mutated pyrrolysine tRNA-synthetase [3]	peptide cross-linking with streptavidin (streptavidin [5])	also measured
O=C(O)CCCC[C@@H]1SC[C@@H]2NC(=O)N[C@@H]21 [biotin]				affinity for streptavidin relative to StrepTagII (streptavidin [1]): much higher affinity
NC(CCCCNC(=O)c1ccco1)C(=O)O (centres unmarked) [furan amino acid of Formula (XIc)]	incorporated in YFP by the wild type synthetase in good yield	incorporated both		incorporation in YFP by the mutated synthetase, comparison ([3]; compared with Formula (XId) and with wild type synthetase): better than the incorporation of the furan amino acid of Formula (XId), but in lower yield than with the wild type synthetase; incorporation in TrxA [4]: incorporation of the furan amino acid on the correct position of TrxA
NC(CCCCNC(=O)NCc1ccco1)C(=O)O (centres unmarked) [furan amino acid of Formula (XId)]	did not incorporate	incorporated both		
peptide 5.2: N-terminal furan-StrepTagII peptide with N-terminal (2-furyl)-alanine capped with 2-naphtoic acid (FIG. 8, SEQ ID NO 2) (AWSHPQFEK; N-terminal furylalanine capped with 2-naphthoic acid)			cross-linking was observed	cross-link with streptavidin compared with peptide 5.3 (streptavidin [5]; same conditions as E1): less explicit
peptide 5.3: C-terminal furan-StrepTagII peptide with C-terminal (2-furyl)-alanine, N-terminally capped with 2-naphtoic acid (FIG. 9, SEQ ID NO 3) (WSHPQFEKA; N-terminal 2-naphthoyl cap; C-terminal 2-furylalanine)			cross-linking was observed	cross-link with streptavidin in the presence of biotin (streptavidin [6]): no cross-link
